Laboratory results from patent publication US7547513B2, “Mutants of deoxycytidine kinase having extended enzymatic activity” (priority 2001, dated 2009).
Converted amounts (≈) assume the structure as drawn. “And” between values parts separate entries of the source, which are not always exact repeats. Equal values may be shown once.

Tests used:
Type in all cases: cell-based
[1] = system: Escherichia coli β7338 Δdeo tdk cdd::Tn10 pSUDCK4 (dck:D133E-R104Q); conditions: strain β7338, dck allele D133E R104Q; 18 h 37° C., MS medium + IPTG
Method: (§1) The culture was then diluted 100 times in the same medium supplemented with IPTG and distributed on 96-well microplates in a final volume of 100 μl in a series of dilutions from to 2 to 2 nucleotide analogues. Each analogue was tested twice. After incubation for 18 hours at 37° C. with stirring, the MIC was determined as corresponding to the lowest analogue concentration for which no turbidity was detectable.
(§2) The toxicity of nucleoside analogues, deviating either by the sugar or by the base, was evaluated in strains of genotype Δdeo tdk cdd expressing on a plasmid the different dckH alleles, wild-type allele, D133E, R104Q and double mutant.
(§3) The minimum inhibitory concentrations, expressed in microM, were determined as indicated in the section Materials and Methods.

[2] = system: Escherichia coli β7334 Δdeo tdk cdd::Tn10 pSUTrc (dck allele: none); conditions: strain β7334, dck allele none; 18 h 37° C., MS medium + IPTG
Method: as §1, §2, §3

[3] = system: Escherichia coli β7342 Δdeo tdk cdd::Tn10 (dckH R104Q, amkG wt); assay: microbe, parasite or virus in culture; conditions: for minimum inhibitory concentration (MIC): strain β7342, dckH R104Q, amkG wt
Method: as §1
(§4) We jointly expressed, within the genetic context Δdeo tdk cdd each of the four alleles of dckH with each of the two wt and T39A alleles of amkG, and tested the toxicity of the different nucleoside analogues already tested previously (Table 4 below).
as §3

[4] = system: Escherichia coli β7340 Δdeo tdk cdd::Tn10 (dckH wt, amkG wt); assay: microbe, parasite or virus in culture; conditions: for minimum inhibitory concentration (MIC): strain β7340, dckH wt, amkG wt
Method: as §1, §4, §3

[5] = system: Escherichia coli β7347 Δdeo tdk cdd::Tn10 (dckH R104Q, amkG T39A); assay: microbe, parasite or virus in culture; conditions: for minimum inhibitory concentration (MIC): strain β7347, dckH R104Q, amkG T39A
Method: as §1, §4, §3

[6] = system: Escherichia coli β7341 Δdeo tdk cdd::Tn10 (dckH D133E, amkG wt); assay: microbe, parasite or virus in culture; conditions: for minimum inhibitory concentration (MIC): strain β7341, dckH D133E, amkG wt
Method: as §1, §4, §3

[7] = system: Escherichia coli β7343 Δdeo tdk cdd::Tn10 (dckH D133E R104Q, amkG wt); assay: microbe, parasite or virus in culture; conditions: for minimum inhibitory concentration (MIC): strain β7343, dckH D133E R104Q, amkG wt
Method: as §1, §4, §3

[8] = system: Escherichia coli β7345 Δdeo tdk cdd::Tn10 (dckH wt, amkG T39A); assay: microbe, parasite or virus in culture; conditions: for minimum inhibitory concentration (MIC): strain β7345, dckH wt, amkG T39A
Method: as §1, §4, §3

[9] = system: Escherichia coli β7339 Δdeo tdk cdd::Tn10 (dckH none, amkG wt); assay: microbe, parasite or virus in culture; conditions: for minimum inhibitory concentration (MIC): strain β7339, dckH none, amkG wt
Method: as §1, §4, §3

[10] = system: Escherichia coli β7346 Δdeo tdk cdd::Tn10 (dckH D133E, amkG T39A); assay: microbe, parasite or virus in culture; conditions: for minimum inhibitory concentration (MIC): strain β7346, dckH D133E, amkG T39A
Method: as §1, §4, §3

[11] = system: Escherichia coli β7348 Δdeo tdk cdd::Tn10 (dckH D133E R104Q, amkG T39A); assay: microbe, parasite or virus in culture; conditions: for minimum inhibitory concentration (MIC): strain β7348, dckH D133E R104Q, amkG T39A
Method: as §1, §4, §3

[12] = system: Escherichia coli β7344 Δdeo tdk cdd::Tn10 (dckH none, amkG T39A); assay: microbe, parasite or virus in culture; conditions: for minimum inhibitory concentration (MIC): strain β7344, dckH none, amkG T39A
Method: as §1, §4, §3

[13] = system: Escherichia coli β7336 Δdeo tdk cdd::Tn10 pSUDCK2 (dck:D133E); conditions: strain β7336, dck allele D133E; 18 h 37° C., MS medium + IPTG
Method: The culture was then diluted 100 times in the same medium supplemented with IPTG and distributed on 96-well microplates in a final volume of 100 μl in a series of dilutions from to 2 to 2 nucleotide analogues. Each analogue was tested twice.
as §2, §3

[14] = Escherichia coli, read-out: minimum inhibitory concentration (MIC)

## O=c1[nH]c(=O)n([C@H]2C[C@H](O)[C@@H](CO)O2)cc1Cl [5-chloro-dU]
[1]
  minimum inhibitory concentration (MIC): > (no toxicity could be detected at the highest analogue concentration, 1.28 mM)
[2]
  minimum inhibitory concentration (MIC): > (no toxicity could be detected at the highest analogue concentration, 1.28 mM)

## O=c1ccn([C@H]2CC[C@@H](CO)O2)c(=O)[nH]1 [ddU]
[1]
  minimum inhibitory concentration (MIC): > (no toxicity could be detected at the highest analogue concentration, 1.28 mM)
[2]
  minimum inhibitory concentration (MIC): > (no toxicity could be detected at the highest analogue concentration, 1.28 mM)

## NC(=O)c1cn([C@H]2C[C@H](O)[C@@H](CO)O2)cn1 [dY, 1-(2′-deoxyribofuranosyl)imidazole-4-carboxamide]
[1]
  minimum inhibitory concentration (MIC): > (no toxicity could be detected at the highest analogue concentration, 1.28 mM)
[2]
  minimum inhibitory concentration (MIC): > (no toxicity could be detected at the highest analogue concentration, 1.28 mM)
[3]
  minimum inhibitory concentration (MIC): > (no toxicity could be detected at the highest analogue concentration, 1280 microM)
[4]
  minimum inhibitory concentration (MIC): > (no toxicity could be detected at the highest analogue concentration, 1280 microM)
[5]
  minimum inhibitory concentration (MIC): > (no toxicity could be detected at the highest analogue concentration, 1280 microM)
[6]
  minimum inhibitory concentration (MIC): > (no toxicity could be detected at the highest analogue concentration, 1280 microM)
[7]
  minimum inhibitory concentration (MIC): > (no toxicity could be detected at the highest analogue concentration, 1280 microM)
[8]
  minimum inhibitory concentration (MIC): > (no toxicity could be detected at the highest analogue concentration, 1280 microM)
[9]
  minimum inhibitory concentration (MIC): > (no toxicity could be detected at the highest analogue concentration, 1280 microM)
[10]
  minimum inhibitory concentration (MIC): 1280 µM (≈ 291 µg/mL)
[11]
  minimum inhibitory concentration (MIC): > (no toxicity could be detected at the highest analogue concentration, 1280 microM)
[12]
  minimum inhibitory concentration (MIC): > (no toxicity could be detected at the highest analogue concentration, 1280 microM)

## O=c1[nH]c(=O)n([C@H]2C[C@H](O)[C@@H](CO)O2)cc1I [5-iodo-dU]
[1]
  minimum inhibitory concentration (MIC): > (no toxicity could be detected at the highest analogue concentration, 1.28 mM)
[2]
  minimum inhibitory concentration (MIC): > (no toxicity could be detected at the highest analogue concentration, 1.28 mM)

## O=c1[nH]c(=O)n([C@H]2C[C@H](O)[C@@H](CO)O2)cc1CO [5-hm-dU]
[1]
  minimum inhibitory concentration (MIC): > (no toxicity could be detected at the highest analogue concentration, 1.28 mM)
[2]
  minimum inhibitory concentration (MIC): > (no toxicity could be detected at the highest analogue concentration, 1.28 mM)

## Cc1cn([C@H]2CC[C@@H](CO)O2)c(=O)[nH]c1=O [ddT]
[1]
  minimum inhibitory concentration (MIC): > (no toxicity could be detected at the highest analogue concentration, 1.28 mM)
[2]
  minimum inhibitory concentration (MIC): > (no toxicity could be detected at the highest analogue concentration, 1.28 mM)

## Nc1nc(=O)n([C@H]2C[C@H](O)[C@@H](CO)O2)cc1I [5-iodo-dC, 5-iodo-2′-deoxycytidine]
[3]; [14]
  MIC: ≤ 1.25 µM
[4]; [14]
  MIC: > 1280 µM
[5]; [14]
  MIC: ≤ 1.25 µM
[6]; [14]
  MIC: ≤ 1.25 µM
[7]; [14]
  MIC: ≤ 1.25 µM
[8]; [14]
  MIC: ≤ 1.25 µM
[9]; [14]
  MIC: > 1280 µM
[10]; [14]
  MIC: ≤ 1.25 µM
[11]; [14]
  MIC: ≤ 1.25 µM
[12]; [14]
  MIC: > 1280 µM

## O=c1[nH]cnc2c1ncn2[C@H]1C[C@H](O)[C@@H](CO)O1 [dI, 2′-deoxyinoside]
[1]
  minimum inhibitory concentration (MIC): 320 µM
[2]
  minimum inhibitory concentration (MIC): > (no toxicity could be detected at the highest analogue concentration, 1.28 mM)
[3]
  minimum inhibitory concentration (MIC): > (no toxicity could be detected at the highest analogue concentration, 1280 microM)
[4]
  minimum inhibitory concentration (MIC): > (no toxicity could be detected at the highest analogue concentration, 1280 microM)
[5]
  minimum inhibitory concentration (MIC): > (no toxicity could be detected at the highest analogue concentration, 1280 microM)
[6]
  minimum inhibitory concentration (MIC): ≦1.25 microM
[7]
  minimum inhibitory concentration (MIC): 1280 µM (≈ 323 µg/mL)
[8]
  minimum inhibitory concentration (MIC): > (no toxicity could be detected at the highest analogue concentration, 1280 microM)
[9]
  minimum inhibitory concentration (MIC): > (no toxicity could be detected at the highest analogue concentration, 1280 microM)
[10]
  minimum inhibitory concentration (MIC): ≦1.25 microM
[11]
  minimum inhibitory concentration (MIC): 1280 µM (≈ 323 µg/mL)
[12]
  minimum inhibitory concentration (MIC): > (no toxicity could be detected at the highest analogue concentration, 1280 microM)
[13]
  minimum inhibitory concentration (MIC): 1 µM and 1.25 µM

## Cc1cn([C@H]2C[C@H](O)[C@@H](CN)O2)c(=O)[nH]c1=O [5′-amino-dT]
[1]
  minimum inhibitory concentration (MIC): > (no toxicity could be detected at the highest analogue concentration, 1.28 mM)
[2]
  minimum inhibitory concentration (MIC): > (no toxicity could be detected at the highest analogue concentration, 1.28 mM)

## OC[C@H]1O[C@@H](n2c(O)nc3c(O)ncnc32)C[C@@H]1O [8ho′dI, 8-hydroxy-hypoxanthine deoxyribonucleoside]
[1]
  minimum inhibitory concentration (MIC): > (no toxicity could be detected at the highest analogue concentration, 1.28 mM)
[2]
  minimum inhibitory concentration (MIC): > (no toxicity could be detected at the highest analogue concentration, 1.28 mM)
[3]
  minimum inhibitory concentration (MIC): > (no toxicity could be detected at the highest analogue concentration, 1280 microM)
[4]
  minimum inhibitory concentration (MIC): > (no toxicity could be detected at the highest analogue concentration, 1280 microM)
[5]
  minimum inhibitory concentration (MIC): > (no toxicity could be detected at the highest analogue concentration, 1280 microM)
[6]
  minimum inhibitory concentration (MIC): 1280 µM (≈ 343 µg/mL)
[7]
  minimum inhibitory concentration (MIC): > (no toxicity could be detected at the highest analogue concentration, 1280 microM)
[8]
  minimum inhibitory concentration (MIC): > (no toxicity could be detected at the highest analogue concentration, 1280 microM)
[9]
  minimum inhibitory concentration (MIC): > (no toxicity could be detected at the highest analogue concentration, 1280 microM)
[10]
  minimum inhibitory concentration (MIC): 1280 µM (≈ 343 µg/mL)
[11]
  minimum inhibitory concentration (MIC): > (no toxicity could be detected at the highest analogue concentration, 1280 microM)
[12]
  minimum inhibitory concentration (MIC): > (no toxicity could be detected at the highest analogue concentration, 1280 microM)
[13]
  minimum inhibitory concentration (MIC): 1280 µM

## Nc1nc(=O)n([C@H]2C[C@H](O)[C@@H](CO)O2)cc1Br [5-bromo-dC, 5-bromo-2-deoxycytidine]
[1]
  minimum inhibitory concentration (MIC): > (no toxicity could be detected at the highest analogue concentration, 1.28 mM)
[2]
  minimum inhibitory concentration (MIC): > (no toxicity could be detected at the highest analogue concentration, 1.28 mM)

## Nc1nc2c(ncn2[C@@H]2C[C@H](O)[C@@H](CO)O2)c(=O)o1 [d-oxanosine]
[1]
  minimum inhibitory concentration (MIC): > (no toxicity could be detected at the highest analogue concentration, 1.28 mM)
[2]
  minimum inhibitory concentration (MIC): > (no toxicity could be detected at the highest analogue concentration, 1.28 mM)
[13]
  minimum inhibitory concentration (MIC): 80 µM

## Nc1ccn([C@H]2CC[C@@H](CO)O2)c(=O)n1 [ddC]
[1]
  minimum inhibitory concentration (MIC): > (no toxicity could be detected at the highest analogue concentration, 1.28 mM)
[2]
  minimum inhibitory concentration (MIC): > (no toxicity could be detected at the highest analogue concentration, 1.28 mM)

## Cc1cn([C@H]2C[C@H](O)[C@@H](CO)O2)c(N)nc1=O [5-methyl-disoC]
[1]
  minimum inhibitory concentration (MIC): > (no toxicity could be detected at the highest analogue concentration, 1.28 mM)
[2]
  minimum inhibitory concentration (MIC): > (no toxicity could be detected at the highest analogue concentration, 1.28 mM)
